The record followed here is PubChem BioAssay (NCI).

Molecules are shown by their SMILES.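 A five-concentration, 48-hour dose response in 96-well plates underlies each endpoint, interpolated linearly between surrounding concentrations. Abbreviation: GI50, concentration required for 50% inhibition of growth. TGI: concentration producing complete growth inhibition.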

Some test systems named below: CAKI-1 renal; CCRF-CEM leukemia; HCT-116 colon; HCT-15 colon; HL-60(TB) leukemia; KM12 colon; LOX IMVI melanoma; OVCAR-8 ovarian; RXF 393 renal; SK-MEL-2 melanoma.
Common to all, as to assay: NCI anticancer screen, dose series, 48 h

For the compound `Nc1cc(N)c(N)cc1N`, the GI50 was 2.55 µM with CAKI-1 renal; 3.43 µM in the test on CCRF-CEM leukemia; 2.01 µM with HCT-116 colon; 2.01 µM in the test with HCT-15 colon; 2.17 µM in the test on HL-60(TB) leukemia; 2.88 µM in the test with KM12 colon. Besides, the GI50 with LOX IMVI melanoma was 1.82 µM; in the test with OVCAR-8 ovarian, 3.15 µM; in the test on RXF 393 renal, 1.73 µM. In addition, the TGI turned out to be 7.17 µM in the test with CAKI-1 renal; 27.5 µM in the test on CCRF-CEM leukemia; 4.61 µM with HCT-116 colon; 4.68 µM in the test with HCT-15 colon; 6.02 µM in the test with HL-60(TB) leukemia; 10.7 µM in the test on KM12 colon. Also, the TGI is 3.75 µM in the test with LOX IMVI melanoma, 12.3 µM in the test with OVCAR-8 ovarian and 3.19 µM with RXF 393 renal.

For the compound `O=NNc1nc(-c2cccnc2)nc2ccccc12`, the TGI in the test on CAKI-1 renal, with CCRF-CEM leukemia, with HCT-116 colon, in the test with HCT-15 colon, with HL-60(TB) leukemia and in the test on KM12 colon was over 100 µM throughout. The compound also yielded a TGI in the test with OVCAR-8 ovarian of over 100 µM.

For `Nc1nc2c(c(=O)[nH]1)CN(c1ccc(S(N)(=O)=O)cc1)CN2`, the TGI in the test on CAKI-1 renal, with HCT-116 colon, with HCT-15 colon, in the test on KM12 colon, in the test on LOX IMVI melanoma and with OVCAR-8 ovarian was over 100 µM throughout. The same compound gave a TGI with SK-MEL-2 melanoma of over 100 µM.

For the compound `CC(=O)OCC1OC(n2ccc(=O)[nH]c2=O)C(OC(C)=O)C1OC(C)=O` (stereo unspecified), the GI50 in the test on CAKI-1 renal, with HCT-116 colon, with HCT-15 colon, with KM12 colon, in the test with LOX IMVI melanoma and in the test on OVCAR-8 ovarian was over 100 µM each time. In addition, the GI50 with RXF 393 renal and in the test on SK-MEL-2 melanoma was over 100 µM throughout. Moreover, the TGI in the test on CAKI-1 renal, in the test with HCT-116 colon, in the test on HCT-15 colon, with KM12 colon, in the test with LOX IMVI melanoma and with OVCAR-8 ovarian was over 100 µM throughout. Also, the TGI in the test with RXF 393 renal and in the test with SK-MEL-2 melanoma was over 100 µM throughout.

`COc1ccc(-c2cn(-c3ccccc3)c(-c3ccccc3)n2)cc1OC`: the GI50 in the test on CAKI-1 renal was 11.2 µM; in the test on CCRF-CEM leukemia, 2.16 µM; with HCT-116 colon, 2.84 µM; in the test with HCT-15 colon, 2.62 µM; in the test with HL-60(TB) leukemia, 2.34 µM; in the test with KM12 colon it was 2.4 µM. Besides, the GI50 is 3.08 µM in the test with LOX IMVI melanoma, 3.01 µM in the test on OVCAR-8 ovarian and 7.06 µM in the test with SK-MEL-2 melanoma. In addition, the TGI was 27 µM with CAKI-1 renal; 5.98 µM in the test with CCRF-CEM leukemia; 11.9 µM in the test on HCT-116 colon; 11.2 µM with HCT-15 colon; 6.7 µM in the test with HL-60(TB) leukemia; 6.41 µM with KM12 colon. Also, the TGI in the test with LOX IMVI melanoma came out at 11.7 µM; in the test with OVCAR-8 ovarian it was 10.8 µM; in the test on SK-MEL-2 melanoma, 22.5 µM.

As for `NC(C(=O)[O-])C(=O)[O-].NC1CCCCC1N.[Pt+4]`, the GI50 is 1.07 µM in the test on CAKI-1 renal; 2.49 µM with HCT-116 colon; 4.41 µM with HCT-15 colon; 5.28 µM in the test on HL-60(TB) leukemia; 12.5 µM with KM12 colon; 2.85 µM with LOX IMVI melanoma. Moreover, the GI50 in the test with OVCAR-8 ovarian and in the test with SK-MEL-2 melanoma was over 100 µM in each case. Besides, the TGI in the test with CAKI-1 renal was 3.99 µM; with HCT-116 colon it was 26.6 µM; in the test on HCT-15 colon, over 100 µM; in the test on HL-60(TB) leukemia, over 100 µM; in the test on KM12 colon, over 100 µM; in the test with LOX IMVI melanoma it was over 100 µM. The TGI with OVCAR-8 ovarian and with SK-MEL-2 melanoma was over 100 µM throughout.

In the case of `COc1cc(-c2cn(-c3ccc(Cl)cc3)c(C)c2C(=O)C(F)(F)F)cc(OC)c1OC`, the GI50 in the test on CAKI-1 renal was over 100 µM; in the test on CCRF-CEM leukemia it was 16.1 µM; in the test with HCT-116 colon it was 7.03 µM; with HCT-15 colon, over 100 µM; in the test with KM12 colon it was over 100 µM; in the test on LOX IMVI melanoma, over 100 µM. Also, the GI50 in the test on OVCAR-8 ovarian, in the test with RXF 393 renal and in the test on SK-MEL-2 melanoma was over 100 µM in each case. The TGI in the test with CAKI-1 renal, in the test with CCRF-CEM leukemia, with HCT-116 colon, in the test on HCT-15 colon, in the test on KM12 colon and in the test on LOX IMVI melanoma was over 100 µM each time. Moreover, the TGI with OVCAR-8 ovarian, in the test on RXF 393 renal and with SK-MEL-2 melanoma was over 100 µM each time.

In the case of `COc1ccc(-c2cncn2-c2ccc(OC)cc2)cc1`, the GI50 in the test on CAKI-1 renal was 20.6 µM; with HCT-116 colon, 20.5 µM; in the test on HCT-15 colon, 19.6 µM; with HL-60(TB) leukemia, 9.06 µM; with KM12 colon it was 10.2 µM; with LOX IMVI melanoma it was 29.6 µM. The GI50 in the test on OVCAR-8 ovarian is 21.1 µM; in the test with RXF 393 renal it was 0.376 µM; in the test with SK-MEL-2 melanoma it was 17.9 µM. The TGI in the test on CAKI-1 renal is 44 µM; in the test with HCT-116 colon, 44 µM; with HCT-15 colon it was over 100 µM; in the test on HL-60(TB) leukemia, 26.2 µM; in the test on KM12 colon, 29 µM; with LOX IMVI melanoma, over 100 µM. In addition, the TGI was found to be 52.8 µM with OVCAR-8 ovarian, 9.46 µM in the test with RXF 393 renal and 42.9 µM with SK-MEL-2 melanoma.

In the case of `CCCCCCCCCCCC[n+]1ccc(CCCCCCCCC)cc1`, the GI50 in the test with CAKI-1 renal was 1.51 µM; in the test on HL-60(TB) leukemia, 0.362 µM; in the test with RXF 393 renal it was 1.36 µM. Also, the values for the TGI in the test with CAKI-1 renal, with HL-60(TB) leukemia and in the test on RXF 393 renal were 2.93 µM, 1.83 µM and 2.86 µM, respectively.

Regarding `Cc1ccc(C(O)c2cnc(C)n2Cc2ccccc2)cc1` (stereo unspecified), the TGI in the test with CAKI-1 renal, in the test on HCT-116 colon, in the test on HCT-15 colon, in the test with HL-60(TB) leukemia, with KM12 colon and in the test on LOX IMVI melanoma was over 100 µM each time. Besides, the TGI in the test on OVCAR-8 ovarian, with RXF 393 renal and in the test on SK-MEL-2 melanoma was over 100 µM throughout.

In the case of `COc1nc2nccc-2c2occn12`, the TGI in the test with CAKI-1 renal, in the test on HCT-116 colon, with HCT-15 colon, in the test with KM12 colon, in the test on LOX IMVI melanoma and in the test with OVCAR-8 ovarian was over 100 µM each time. The TGI in the test on RXF 393 renal and with SK-MEL-2 melanoma was over 100 µM in each case.
